Laboratory results published in patent US8604036B2, “Pyridazinone derivatives” (Merck Patent GmbH, priority 2008, dated 2013).

How the values were obtained:
Met kinase [1] = molecular target: T1, Met kinase (Homo sapiens, UniProt P08581); assay: Met kinase inhibition (cell); format: cell-based
Target sequence in this assay (P08581 25-1390): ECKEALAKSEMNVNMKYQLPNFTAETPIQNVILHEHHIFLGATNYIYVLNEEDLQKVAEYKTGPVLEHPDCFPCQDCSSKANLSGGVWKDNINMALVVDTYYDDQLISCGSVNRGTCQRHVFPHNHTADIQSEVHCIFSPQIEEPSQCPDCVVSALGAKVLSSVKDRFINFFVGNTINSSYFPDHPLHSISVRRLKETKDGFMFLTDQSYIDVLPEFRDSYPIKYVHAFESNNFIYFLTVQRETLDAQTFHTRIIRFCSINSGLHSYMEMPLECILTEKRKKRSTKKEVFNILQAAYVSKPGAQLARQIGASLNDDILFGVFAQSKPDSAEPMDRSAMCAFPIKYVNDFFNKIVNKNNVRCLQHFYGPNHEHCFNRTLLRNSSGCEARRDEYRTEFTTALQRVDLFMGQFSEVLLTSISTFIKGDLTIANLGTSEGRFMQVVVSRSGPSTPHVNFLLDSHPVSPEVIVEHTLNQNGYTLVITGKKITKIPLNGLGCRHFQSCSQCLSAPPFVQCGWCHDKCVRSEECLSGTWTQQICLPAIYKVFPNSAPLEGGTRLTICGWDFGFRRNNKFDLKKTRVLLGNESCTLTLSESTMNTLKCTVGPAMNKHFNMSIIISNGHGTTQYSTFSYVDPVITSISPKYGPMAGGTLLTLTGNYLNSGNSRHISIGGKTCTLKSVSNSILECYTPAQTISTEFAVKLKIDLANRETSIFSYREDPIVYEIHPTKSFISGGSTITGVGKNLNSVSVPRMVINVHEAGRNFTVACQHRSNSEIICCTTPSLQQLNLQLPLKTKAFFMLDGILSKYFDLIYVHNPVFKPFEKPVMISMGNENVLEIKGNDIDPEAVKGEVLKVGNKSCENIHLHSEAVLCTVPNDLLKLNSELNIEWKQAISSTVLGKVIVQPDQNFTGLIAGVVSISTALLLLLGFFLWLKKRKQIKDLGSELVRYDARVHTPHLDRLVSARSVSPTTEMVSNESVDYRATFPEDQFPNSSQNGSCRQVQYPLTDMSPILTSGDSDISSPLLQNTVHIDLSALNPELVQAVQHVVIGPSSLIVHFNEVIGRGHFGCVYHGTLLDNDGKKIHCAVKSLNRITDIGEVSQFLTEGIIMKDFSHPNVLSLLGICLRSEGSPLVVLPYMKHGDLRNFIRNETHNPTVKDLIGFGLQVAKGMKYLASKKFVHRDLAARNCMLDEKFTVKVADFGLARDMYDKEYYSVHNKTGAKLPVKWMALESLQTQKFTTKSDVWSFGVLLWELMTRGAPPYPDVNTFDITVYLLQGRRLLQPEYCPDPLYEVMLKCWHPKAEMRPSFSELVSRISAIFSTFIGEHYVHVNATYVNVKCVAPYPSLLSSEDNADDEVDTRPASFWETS

Met kinase [2] = molecular target: T1, Met kinase; assay: Met kinase inhibition, flashplate method (enzyme); format: biochemical; set-up: 6His (N); purchased Upstate 14-526; host or cells: Sf21 insect cells (S. frugiperda), baculovirus
Description: Measurement of Met Kinase Activity
According to the manufacturer's data (Met, active, upstate, catalogue No. 14-526), Met kinase is expressed for the purposes of protein production in insect cells (Sf21; S. frugiperda) and subsequent affinity-chromatographic purification as “N-terminal 6His-tagged” recombinant human protein in a baculovirus expression vector.
Flashplate Method (Met Kinase)
The test plates used are 96-well Flashplate® microtitre plates from Perkin Elmer (Cat. No. SMP200). The components of the kinase reaction described below are pipetted into the assay plate. The Met kinase and the substrate poly Ala-Glu-Lys-Tyr, (pAGLT, 6:2:5:1), are incubated for 3 hrs at room temperature with radioactively labelled ^33P-ATP in the presence and absence of test substances in a total volume of 100 μl. The reaction is terminated using 150 μl of a 60 mM EDTA solution. After incubation for a further 30 min at room temperature, the supernatants are filtered off with suction, and the wells are washed three times with 200 μl of 0.9% NaCl solution each time. The measurement of the bound radioactivity is carried out by means of a scintillation measuring instrument (Topcount NXT, Perkin-Elmer).
The full value used is the inhibitor-free kinase reaction. This should be approximately in the range 6000-9000 cpm. […] The inhibitory values (IC50) are determined using the RS1_MTS program. […]
Target sequence in this assay (P08581 974-1390 limits assumed): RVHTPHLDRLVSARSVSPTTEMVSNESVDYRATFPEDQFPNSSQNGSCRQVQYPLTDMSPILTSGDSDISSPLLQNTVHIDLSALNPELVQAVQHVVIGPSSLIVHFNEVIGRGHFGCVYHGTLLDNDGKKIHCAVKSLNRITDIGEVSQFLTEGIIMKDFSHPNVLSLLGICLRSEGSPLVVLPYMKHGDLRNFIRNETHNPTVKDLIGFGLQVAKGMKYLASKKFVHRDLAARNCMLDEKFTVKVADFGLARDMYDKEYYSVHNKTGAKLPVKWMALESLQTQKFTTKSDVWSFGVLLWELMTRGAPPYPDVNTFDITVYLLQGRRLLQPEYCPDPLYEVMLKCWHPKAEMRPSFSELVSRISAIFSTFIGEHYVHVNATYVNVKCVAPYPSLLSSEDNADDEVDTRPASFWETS

Compound	IC50 (Met kinase [1]) [µM]	IC50 (Met kinase [2]) [µM]
Cc1ccc(-c2cccc(Cn3nc(-c4cc(F)cc(F)c4)ccc3=O)n2)nc1 [Compound A1, 6-(3,5-difluorophenyl)-2-(5′-methyl-[2,2′]bipyridinyl-6-ylmethyl)-2H-pyridazin-3-one]	1 to 10	0.01 to 1
N#Cc1cccc(-c2ccc(=O)n(Cc3cccc(-c4ncc(-c5cnn(CCN6CCCC6)c5)cn4)n3)n2)c1 [Compound A2, 3-[6-oxo-1-(6-{5-[1-(2-pyrrolidin-1-ylethyl)-1H-pyrazol-4-yl]pyrimidin-2-yl}pyridin-2-ylmethyl)-1,6-dihydropyridazin-3-yl]benzonitrile]	0.01 to 1	
